Measured values published in PMC11725581, “Developing novel Lin28 inhibitors by computer aided drug design” (Cell Death Discovery, 2025).
Numbering of substitutions follows the chain as printed.

What was measured:
[1] = biological target: T1, Lin28b ZKD (Homo sapiens, UniProt Q6ZN17); assay: Fluorescence polarization (FP) assay, Lin28b ZKD:pre-let-7d interaction; assay type: binding; settings: for IC50: 10 nM pre-let-7d probe, 1 μM Lin28b ZKD; for activity in protein-based assays: FP / EMSA
T1 sequence (Q6ZN17 127-166 limits assumed): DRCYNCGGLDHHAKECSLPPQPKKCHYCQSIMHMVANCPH
Description: (§1) We conducted two biochemical assays, FP and EMSA, to validate the predicted compounds. To optimize the FP assays, we performed a series of titrations using: (1) FAM-labeled pre-let-7d RNA probe, (2) Lin28b ZKD protein, and (3) non-labeled pre-let-7 probe as a competitor (Fig. 2A). These assays yielded the optimal concentrations required for the subsequent FP validation assays, namely 10 nM for the pre-let-7d probe and 1 μM for Lin28b ZKD protein. The FP signal from the free probe was set as 0%, while the signal from the probe-ZKD complex in the absence of compounds was set as 100%. C1632 was used as a control Lin28 inhibitor (Fig. 2B). […] Since the docking pocket is almost identical between Lin28a and Lin28b homologs, we repeated the FP assays using Lin28a ZKD (Figure S2).
(§2) The fluorescein amidites (FAM)-tagged pre-Let-7d probe with the sequence of […] was purchased from Integrated DNA Technologies (IDT). The probe at the concentrations ranging from 1 nM to 50 uM was incubated with Lin28B (ZKD) or Lin28 (CSD+ZKD) to a final volume of 30 uL at room temperature for 20 min. To read the fluorescence, a TECAN 500 machine was used. Fluorescence polarization was calculated using the following equation:
P=(Fparrallel−Fperpendicular)/(Fparrallel+FperpendicularP)
where P is the fluorescence polarization reading, F parallel is the fluorescence intensity acquired from the parallel excitation plane, and F perpendicular is the fluorescence intensity acquired from the perpendicular direction of the excitation plane. The total fluorescence intensity is estimated using the following equation:
F=Fparallel+2FperpendicularF.
(§3) All the raw FP signal data from the TECAN 500 FP results were analyzed using Prism 8.0 (GraphPad, San Diego, CA, USA); normalized curves were plotted and IC50 values were estimated. All FP data were repeated three to five times.
Figure S1. Lin28b ZKD protein was incubated with the indicated compounds at the concentration of 0, 0.1, 0.2, 0.5, 1, 2, 5, 10, 20, 50, 100, and 200uM. FP signals were measured and plotted relative to that from vehicle.

[2] = test system: Lin28b protein expression in DuNE cells; assay: Lin28b protein levels by immunoblotting in DuNE cells; assay type: cell-based; settings: 20uM, 72 h
Description: We further tested whether the 13 candidate compounds could penetrate the cell membrane, endure cell-mediated metabolism and excretion, and inhibit Lin28 activities inside cancer cells. […] Since let-7 and Lin28b mutually regulate each other’s expression, increased let-7 expression by Lin28 inhibitors would suppress Lin28b protein levels.
Fig. 3 Validate CADD predicted compounds by cell-based assays. A, B DuNE cells were treated with Lin28b inhibitors for 72 h. Let-7d RNA levels were measured by real-time qPCR (A) and Lin28b protein levels were measured by immunoblotting (B). […] Cell proliferation rates were measured by Incucyte. D Overlay of 1H-15N HSQC spectra for Lin28b-ZKD (black), Lin28b-ZKD + Ln15 (orange), and Lin28b-ZKD + Ln268 (blue). Ligands were added in a 20:1 molar ratio. Approximately 20 residues are seen to shift (from black to orange/blue), with ca. 5 resonances disappearing for Lin28b-ZKD in the presence of Ln268. E Overlay of the 20 NMR models for 2CQF (gray) and 2LI8 (blue) showing the rearrangement of residues 137–160 in going from Lin28b-ZKD alone to the conformation with RNA present. The conformation of Lin28b-ZKD in the presence of the ligands described herein might resemble that of 2LI8, but with a larger conformational spread. All results are presented as the mean ± SD.
Total RNA was extracted by TRIZOL reagent (Invitrogen), treated with deoxyribonuclease and reversely transcribed by random hexamers and superscript II (Invitrogen). Real-time qPCR was performed on the ABI PRISM 7900 HT system (Applied Biosystems) using the FastStart Universal SYBR Green Master mix (Roche) following standard protocol as we reported. All real-time qPCR assays were carried out in triplicates from three independent cDNA syntheses. For immunoblotting assays, whole cell lysis was extracted by a buffer containing 50mM of Tris pH8.0, 150mM of NaCl, 1% NP40, 0.5% sodium deoxycholate, 0.1% SDS and proteinase and phosphatase inhibitors (Roche). Protein lysis separated by SDS-PAGE, transferred to polyvinylidene difluoride membrane, and blotted by specific antibodies.

[3] = biological target: T2, Lin28a ZKD (Homo sapiens, UniProt Q9H9Z2); assay: Fluorescence polarization (FP) assay, Lin28a ZKD:pre-let-7 interaction; assay type: binding; settings: 0-200 uM
T2 sequence (Q9H9Z2 137-176 limits assumed): T1 sequence (Q6ZN17 127-166 limits assumed) with S17K, Y27F, M32S, N37S, H40L
Description: as §1
as §2, with “equation: […]” for “equation:”
as §3
Figure S2. Lin28a ZKD protein was incubated with the indicated compounds at the concentration of 0, 0.1, 0.2, 0.5, 1, 2, 5, 10, 20, 50, 100, and 200uM. FP signals were measured and plotted relative to that from vehicle.

[4] = biological target: T1, Lin28b ZKD; assay: EMSA, Lin28b ZKD:pre-let-7d complex formation; assay type: binding; settings: 1 μM Lin28 ZKD, 10 nM IRDye800-labeled pre-let-7d probe
Description: We next validated the newly developed compounds using EMSA, a non-florescent-based assay to detect Lin28b ZKD:pre-let-7 complex formation. Similar to the FP assays, we first optimized the experimental conditions by titrating: (1) IRDye800-labeled pre-let-7d RNA probe, (2) Lin28b ZKD protein, and (3) non-labeled pre-let-7 probe as a competitor (Fig. 2C). For the validation experiments, 1 μM Lin28 ZKD and 10 nM of IRDye800-labeled pre-let-7d probe were mixed with each candidate compound. Compounds C1632 and Ln15 were used as control Lin28 inhibitors, respectively. […] Regardless, we use these two biochemical assays to shortlist the most promising compounds for further characterization. […] While our inhibitors directly target the Lin28 ZKD, it is unclear whether C1632 may bind to domains other than the ZKD or allosterically disrupt Lin28’s capacity to bind its RNA substrates.
EMSA followed the standard protocols we published. An IRDye800CWN-labeled pre-Let-7d RNA probe (5’-IRD800CWN-[…]-3’) was purchased from IDT (Coralville, IA, USA). Lin28a or Lin28b proteins were incubated with 300 nM of probe in a standard 20 uL EMSA reaction in a reaction buffer containing 20 mM HEPES-NaOH, pH 7.4, 2 mM DTT, 3 mM MgCl2, 0.05% NP-40, protease inhibitors, and 0.1 ug poly[dI:dC]. After incubation for 30 min at 37 °C, reactions were loaded onto 4% non-denatured polyacrylamide gel in 0.5× TBE buffer. The RNA oligo bands were visualized by using the Li-Cor Odyssey 9120 Infrared Imaging System.

Structure (SMILES)	activity in protein-based assays [1]	potency in blocking the Lin28a ZKD:pre-let-7 interaction (FP) relative to parents [3]	effect on Lin28b protein expression [2]	inhibition of Lin28b ZKD:pre-let-7d complex formation (EMSA) [4]	also measured
O=c1cccc(-c2nc(=O)c3cc(O)c(F)cc3[nH]2)[nH]1 [Ln115]					IC50 [1]: 21 µM
CC(C)(C)c1ccc(O)c(Nc2cccc(=O)[nH]2)c1 [Ln250]					FP potency relative to Ln15 ([1]; FP assays used for SAR guided design): outperformed Ln15
CC(C)c1cc(Nc2csc(=O)[nH]2)c(O)cc1O [Ln267]	higher potency in FP assays	more potent than Ln15 and Ln115	suppressed Lin28b protein expression		IC50 [1]: 4.67 µM
Cc1cccc(Nc2csc(=O)[nH]2)c1O [Ln269]			suppressed Lin28b protein expression	capable of inhibiting Lin28:pre-let-7d complex formation in a dose-dependent manner	
O=c1cccc(-c2nc3cc(F)c(O)c(F)c3c(=O)[nH]2)[nH]1 [Ln272]		more potent than Ln15 and Ln115	suppressed Lin28b protein expression		
Cc1c(F)c(O)c(F)c2c(=O)[nH]c(-c3cccc(=O)[nH]3)nc12 [Ln273]			suppressed Lin28b protein expression		
Cc1cc2[nH]c(-c3cccc(=O)[nH]3)nc(=O)c2cc1O [Ln274]				capable of inhibiting Lin28:pre-let-7d complex formation in a dose-dependent manner	
Cc1cc(-c2nc(=O)c3cc(O)c(F)cc3[nH]2)[nH]c(=O)c1 [Ln275]	inactive				
O=c1cccc(-c2nc(=O)c3cc(O)c(CO)cc3[nH]2)[nH]1 [Ln276]				capable of inhibiting Lin28:pre-let-7d complex formation in a dose-dependent manner	
CN(C)c1ccc(=O)[nH]c1-c1nc(=O)c2cc(O)c(F)cc2[nH]1 [Ln277]	inactive				
Cn1cnc2c(=O)[nH]c(-c3nc(=O)c4cc(O)c(F)cc4[nH]3)cc21 [Ln279]	active	more potent than Ln15 and Ln115		capable of inhibiting Lin28:pre-let-7d complex formation in a dose-dependent manner	
Cc1cc(O)cc2c(=O)nc(-c3nccc(=O)[nH]3)[nH]c12 [Ln282]	inactive				

Now from value to molecule, other results behind:

activity in protein-based assays [1]	potency in blocking the Lin28a ZKD:pre-let-7 interaction (FP) relative to parents [3]	Structure (SMILES)	effect on Lin28b protein expression [2]	inhibition of Lin28b ZKD:pre-let-7d complex formation (EMSA) [4]	also measured
inactive		O=c1cccc(Nc2ccc(O)cc2O)[nH]1 [Ln295]			
inactive		O=c1cccc(Nc2ccccc2O)[nH]1 [Ln296]			
active	more potent than Ln15 and Ln115	O=c1cccc(Nc2ncc(O)cc2O)[nH]1 [Ln298]	suppressed Lin28b protein expression	capable of inhibiting Lin28:pre-let-7d complex formation in a dose-dependent manner	
active	more potent than Ln15 and Ln115	O=c1cccc(Nc2ccncc2O)[nH]1 [Ln300]	suppressed Lin28b protein expression	capable of inhibiting Lin28:pre-let-7d complex formation in a dose-dependent manner	
	more potent than Ln15 and Ln115	Cc1c(O)cnc(Nc2cccc(=O)[nH]2)c1O [Ln302]		capable of inhibiting Lin28:pre-let-7d complex formation in a dose-dependent manner	IC50 [1]: 3.63 µM
	more potent than Ln15 and Ln115	O=c1cccc(Nc2cccc(O)c2O)[nH]1 [Ln306]		capable of inhibiting Lin28:pre-let-7d complex formation in a dose-dependent manner	
